Literature values as cited in patent publication US20030175234A1, “Use of polyphenols to treat skin conditions” (priority 2002, published 2003).
Where two headings read alike, the source gives them in different places.

Tests used:
[1] = system: Ultraviolet-B (UV-B) light ray induced leukocyte infiltration; conditions: mouse skin
[2] = system: Ultraviolet-B (UV-B) light ray induced leukocyte infiltration; conditions: human skin

In the case of `O=C(O[C@@H]1Cc2c(O)cc(O)cc2O[C@@H]1c1cc(O)c(O)c(O)c1)c1cc(O)c(O)c(O)c1` [epigallocatechin gallate], the “block of UV-B induced leukocyte infiltration” value [1] is given as “can block” and the “block of UV-B induced leukocyte infiltration” value [2] is given as “can block”.
